From patent publication US20240058422A1, “GLUCAGON-LIKE PEPTIDE-1 RECEPTOR ANTAGONISTS” (INDIANA UNIVERSITY RESEARCH AND TECHNOLOGY CORPORATION, priority 2022, published 2024)
Values after ≈ are worked out from the molar mass of the structure shown. Read-outs that look alike come from different tables or passages of the source. Non-standard residues stand in square brackets, D forms with d. Residues, ends and D or L forms follow the SMILES beside them. *: point of attachment. Palmitoyl = CCCCCCCCCCCCCCCC(=O)*; Aib = CC(C)(N)C(=O)O

Assays:
GLP-1R = GLP-1R (Homo sapiens, UniProt P43220); assay: GLP-1 receptor-mediated cAMP induction, luciferase reporter gene antagonism assay; format: cell-based; design: host or cells: HEK 293; conditions: antagonism of 0.05 nM GLP-1, HEK 293 cells
Chain of GLP-1R (P43220 24-463): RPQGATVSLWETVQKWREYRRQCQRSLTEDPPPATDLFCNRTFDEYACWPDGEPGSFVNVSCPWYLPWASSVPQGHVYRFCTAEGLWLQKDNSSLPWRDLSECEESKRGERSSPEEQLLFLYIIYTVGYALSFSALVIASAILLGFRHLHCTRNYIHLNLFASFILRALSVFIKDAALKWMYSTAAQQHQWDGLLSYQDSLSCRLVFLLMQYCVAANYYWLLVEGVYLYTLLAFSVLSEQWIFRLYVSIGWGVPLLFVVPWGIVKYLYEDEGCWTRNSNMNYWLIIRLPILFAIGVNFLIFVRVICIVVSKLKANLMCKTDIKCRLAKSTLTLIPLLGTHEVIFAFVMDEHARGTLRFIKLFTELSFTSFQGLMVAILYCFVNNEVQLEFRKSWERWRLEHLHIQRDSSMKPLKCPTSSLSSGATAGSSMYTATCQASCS
How it was run: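 HEK 293 cells cotransfected with human GLP-1 receptor and CRE-luciferase were serum-deprived 16 h, then given serial peptide dilutions followed by 0.05 nM GLP-1 and incubated 5 h at 37° C.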

[1] = 80 mM ammonium bicarbonate buffer, pH 7.7
[2] = Table 3, amino acid substitution variants of Jant4-K40, read-out: Bioactivity IC50
[3] = Table 5, d-AA variants of 9-40am Jant4 K40[C16], read-out: Bioactivity KC50

`CCCCCCCCCCCCCCCC(=O)NCCCC[C@H](NC(=O)[C@H](CO)NC(=O)[C@@H]1CCCN1C(=O)[C@@H]1CCCN1C(=O)[C@@H]1CCCN1C(=O)[C@H](C)NC(=O)CNC(=O)[C@H](CO)NC(=O)[C@H](CO)NC(=O)[C@@H]1CCCN1C(=O)CNC(=O)CNC(=O)[C@H](CCCNC(=N)N)NC(=O)[C@@H](NC(=O)[C@H](CC(C)C)NC(=O)[C@H](Cc1c[nH]c2ccccc12)NC(=O)[C@H](C)NC(=O)[C@@H](NC(=O)[C@H](Cc1ccccc1)NC(=O)[C@H](CCC(=O)O)NC(=O)[C@H](CCCNC(=N)N)NC(=O)[C@@H](NC(=O)[C@H](C)NC(=O)[C@H](CCC(=O)O)NC(=O)[C@H](CCC(=O)O)NC(=O)[C@H](CCC(=O)O)NC(=O)[C@H](CC(C)C)NC(=O)[C@H](Cc1ccc(O)cc1)NC(=O)[C@H](CO)NC(=O)[C@H](CO)NC(=O)[C@@H](NC(=O)[C@@H](N)CC(=O)O)C(C)C)C(C)C)[C@@H](C)CC)C(C)C)C(N)=O` [compound 71] (H-DVSSYLEEEAVREFIAWLVRGGPSSGAPPPSK(Palmitoyl)-NH2; N-terminus assumed) showed a solubility (Solubility in buffer; [1]) greater than 20000 µg/mL and an IC50 (GLP-1R; [2]) of 18 nM.
For `CCCCCCCCCCCCCCCC(=O)NCCCC[C@H](NC(=O)[C@H](CO)NC(=O)[C@@H]1CCCN1C(=O)[C@@H]1CCCN1C(=O)[C@@H]1CCCN1C(=O)[C@H](C)NC(=O)CNC(=O)[C@H](CO)NC(=O)[C@H](CO)NC(=O)[C@@H]1CCCN1C(=O)CNC(=O)CNC(=O)[C@H](CCCNC(=N)N)NC(=O)[C@@H](NC(=O)[C@H](CC(C)C)NC(=O)[C@H](Cc1c[nH]c2ccccc12)NC(=O)[C@H](CCC(=O)O)NC(=O)[C@@H](NC(=O)[C@H](Cc1ccccc1)NC(=O)[C@H](CCC(=O)O)NC(=O)[C@H](CCCNC(=N)N)NC(=O)[C@@H](NC(=O)[C@H](C)NC(=O)[C@H](CCC(=O)O)NC(=O)[C@H](CCC(=O)O)NC(=O)[C@H](CCC(=O)O)NC(=O)[C@H](CC(C)C)NC(=O)[C@H](Cc1ccc(O)cc1)NC(=O)[C@H](CO)NC(=O)[C@H](CO)NC(=O)[C@@H](NC(=O)[C@@H](N)CC(=O)O)C(C)C)C(C)C)[C@@H](C)CC)C(C)C)C(N)=O` [compound 72] (H-DVSSYLEEEAVREFIEWLVRGGPSSGAPPPSK(Palmitoyl)-NH2; N-terminus assumed), the solubility (Solubility in buffer; [1]) was greater than 20000 µg/mL and the IC50 (GLP-1R; [2]) was 19 nM.
`CCCCCCCCCCCCCCCC(=O)NCCCC[C@H](NC(=O)[C@H](CO)NC(=O)[C@@H]1CCCN1C(=O)[C@@H]1CCCN1C(=O)[C@@H]1CCCN1C(=O)[C@H](C)NC(=O)CNC(=O)[C@H](CO)NC(=O)[C@H](CO)NC(=O)[C@@H]1CCCN1C(=O)CNC(=O)CNC(=O)[C@H](CCCNC(=N)N)NC(=O)[C@@H](NC(=O)[C@H](CC(C)C)NC(=O)[C@H](Cc1c[nH]c2ccccc12)NC(=O)[C@H](CCC(=O)O)NC(=O)[C@@H](NC(=O)[C@H](Cc1ccccc1)NC(=O)[C@H](CCC(=O)O)NC(=O)[C@H](CCCNC(=N)N)NC(=O)[C@@H](NC(=O)[C@H](C)NC(=O)[C@H](CCC(=O)O)NC(=O)[C@H](CCC(=O)O)NC(=O)[C@H](CCC(=O)O)NC(=O)[C@H](CC(C)C)NC(=O)[C@H](Cc1ccc(O)cc1)NC(=O)[C@H](CCCNC(=N)N)NC(=O)[C@H](CO)NC(=O)[C@@H](NC(=O)[C@@H](N)CC(=O)O)C(C)C)C(C)C)[C@@H](C)CC)C(C)C)C(N)=O` [compound 75] (H-DVSRYLEEEAVREFIEWLVRGGPSSGAPPPSK(Palmitoyl)-NH2; N-terminus assumed) showed a solubility (Solubility in buffer; [1]) of 18600 µg/mL (≈ 4900 µM) and an IC50 (GLP-1R; [2]) of 19 nM.
`CCCCCCCCCCCCCCCC(=O)NCCCC[C@H](NC(=O)[C@H](CO)NC(=O)[C@@H]1CCCN1C(=O)[C@@H]1CCCN1C(=O)[C@@H]1CCCN1C(=O)[C@H](C)NC(=O)CNC(=O)[C@H](CO)NC(=O)[C@H](CO)NC(=O)[C@@H]1CCCN1C(=O)CNC(=O)CNC(=O)[C@H](CCCCN)NC(=O)[C@@H](NC(=O)[C@H](CC(C)C)NC(=O)[C@H](Cc1c[nH]c2ccccc12)NC(=O)[C@H](C)NC(=O)[C@@H](NC(=O)[C@H](Cc1ccccc1)NC(=O)[C@H](CCC(=O)O)NC(=O)[C@H](CCCNC(=N)N)NC(=O)[C@@H](NC(=O)[C@H](C)NC(=O)[C@H](CCC(N)=O)NC(=O)C(C)(C)NC(=O)[C@H](CCC(=O)O)NC(=O)[C@H](CC(C)C)NC(=O)[C@H](Cc1ccc(O)cc1)NC(=O)[C@H](CO)NC(=O)[C@H](CO)NC(=O)[C@@H](NC(=O)[C@@H](N)CC(=O)O)C(C)C)C(C)C)[C@@H](C)CC)C(C)C)C(N)=O` [compound 84] (H-DVSSYLE[Aib]QAVREFIAWLVKGGPSSGAPPPSK(Palmitoyl)-NH2) showed a solubility (Solubility in buffer; [1]) of 5200 µg/mL (≈ 1450 µM), a solubility (Solubility in buffer; PBS, pH 7.7, Solubility [mg/mL] PBS pH7.7, Table 4, PBS pH7.7) of 200 µg/mL (≈ 55.6 µM) and an IC50 (GLP-1R; Table 4, Aib variants of 9-40am Jant4 K40[C16], read-out: Bioactivity IC50) of 30 nM.
Work on `CCCCCCCCCCCCCCCC(=O)NCCCC[C@H](NC(=O)[C@H](CO)NC(=O)[C@@H]1CCCN1C(=O)[C@@H]1CCCN1C(=O)[C@@H]1CCCN1C(=O)[C@H](C)NC(=O)CNC(=O)[C@H](CO)NC(=O)[C@H](CO)NC(=O)[C@@H]1CCCN1C(=O)CNC(=O)CNC(=O)[C@H](CCCCN)NC(=O)[C@@H](NC(=O)[C@H](CC(C)C)NC(=O)[C@H](Cc1c[nH]c2ccccc12)NC(=O)[C@H](C)NC(=O)[C@@H](NC(=O)[C@H](Cc1ccccc1)NC(=O)[C@H](CCC(=O)O)NC(=O)[C@H](CCCNC(=N)N)NC(=O)[C@@H](NC(=O)[C@H](C)NC(=O)[C@H](CCC(N)=O)NC(=O)[C@@H](CCC(=O)O)NC(=O)[C@H](CCC(=O)O)NC(=O)[C@H](CC(C)C)NC(=O)[C@H](Cc1ccc(O)cc1)NC(=O)[C@H](CO)NC(=O)[C@H](CO)NC(=O)[C@@H](NC(=O)[C@@H](N)CC(=O)O)C(C)C)C(C)C)[C@@H](C)CC)C(C)C)C(N)=O` [compound 85] (H-DVSSYLE[dE]QAVREFIAWLVKGGPSSGAPPPSK(Palmitoyl)-NH2; N-terminus assumed) yielded a solubility (Solubility in buffer; [1]) of 10700 µg/mL (≈ 2940 µM) and an IC50 (GLP-1R; [3]) of 41 nM.
Work on `CCCCCCCCCCCCCCCC(=O)NCCCC[C@H](NC(=O)[C@H](CO)NC(=O)[C@@H]1CCCN1C(=O)[C@@H]1CCCN1C(=O)[C@@H]1CCCN1C(=O)[C@H](C)NC(=O)CNC(=O)[C@H](CO)NC(=O)[C@H](CO)NC(=O)[C@@H]1CCCN1C(=O)CNC(=O)CNC(=O)[C@H](CCCCN)NC(=O)[C@@H](NC(=O)[C@H](CC(C)C)NC(=O)[C@H](Cc1c[nH]c2ccccc12)NC(=O)[C@H](C)NC(=O)[C@@H](NC(=O)[C@H](Cc1ccccc1)NC(=O)[C@H](CCC(=O)O)NC(=O)[C@H](CCCNC(=N)N)NC(=O)[C@@H](NC(=O)[C@H](C)NC(=O)[C@@H](CCC(N)=O)NC(=O)[C@H](CCC(=O)O)NC(=O)[C@H](CCC(=O)O)NC(=O)[C@H](CC(C)C)NC(=O)[C@H](Cc1ccc(O)cc1)NC(=O)[C@H](CO)NC(=O)[C@H](CO)NC(=O)[C@@H](NC(=O)[C@@H](N)CC(=O)O)C(C)C)C(C)C)[C@@H](C)CC)C(C)C)C(N)=O` [compound 86] (H-DVSSYLEE[dQ]AVREFIAWLVKGGPSSGAPPPSK(Palmitoyl)-NH2) yielded a solubility (Solubility in buffer; [1]) of 2200 µg/mL (≈ 604 µM) and an IC50 (GLP-1R; [3]) of 41 nM.
Compound `CCCCCCCCCCCCCCCC(=O)NCCCC[C@H](NC(=O)[C@H](CO)NC(=O)[C@@H]1CCCN1C(=O)[C@@H]1CCCN1C(=O)[C@@H]1CCCN1C(=O)[C@H](C)NC(=O)CNC(=O)[C@H](CO)NC(=O)[C@H](CO)NC(=O)[C@@H]1CCCN1C(=O)CNC(=O)CNC(=O)[C@H](CCCCN)NC(=O)[C@@H](NC(=O)[C@H](CC(C)C)NC(=O)[C@H](Cc1c[nH]c2ccccc12)NC(=O)[C@H](C)NC(=O)[C@@H](NC(=O)[C@H](Cc1ccccc1)NC(=O)[C@H](CCC(=O)O)NC(=O)[C@@H](CCCNC(=N)N)NC(=O)[C@@H](NC(=O)[C@H](C)NC(=O)[C@H](CCC(N)=O)NC(=O)[C@H](CCC(=O)O)NC(=O)[C@H](CCC(=O)O)NC(=O)[C@H](CC(C)C)NC(=O)[C@H](Cc1ccc(O)cc1)NC(=O)[C@H](CO)NC(=O)[C@H](CO)NC(=O)[C@@H](NC(=O)[C@@H](N)CC(=O)O)C(C)C)C(C)C)[C@@H](C)CC)C(C)C)C(N)=O` [compound 87] (H-DVSSYLEEQAV[dR]EFIAWLVKGGPSSGAPPPSK(Palmitoyl)-NH2; N-terminus assumed) has a solubility (Solubility in buffer; [1]) of 800 µg/mL (≈ 220 µM) and an IC50 (GLP-1R; [3]) of 16 nM.
Work on `CCCCCCCCCCCCCCCC(=O)NCCCC[C@H](NC(=O)[C@H](CO)NC(=O)[C@@H]1CCCN1C(=O)[C@@H]1CCCN1C(=O)[C@@H]1CCCN1C(=O)[C@H](C)NC(=O)CNC(=O)[C@H](CO)NC(=O)[C@H](CO)NC(=O)[C@@H]1CCCN1C(=O)CNC(=O)CNC(=O)[C@H](CCCCN)NC(=O)[C@@H](NC(=O)[C@H](CC(C)C)NC(=O)[C@H](Cc1c[nH]c2ccccc12)NC(=O)[C@H](C)NC(=O)[C@@H](NC(=O)[C@H](Cc1ccccc1)NC(=O)[C@@H](CCC(=O)O)NC(=O)[C@H](CCCNC(=N)N)NC(=O)[C@@H](NC(=O)[C@H](C)NC(=O)[C@H](CCC(N)=O)NC(=O)[C@H](CCC(=O)O)NC(=O)[C@H](CCC(=O)O)NC(=O)[C@H](CC(C)C)NC(=O)[C@H](Cc1ccc(O)cc1)NC(=O)[C@H](CO)NC(=O)[C@H](CO)NC(=O)[C@@H](NC(=O)[C@@H](N)CC(=O)O)C(C)C)C(C)C)[C@@H](C)CC)C(C)C)C(N)=O` [compound 88] (H-DVSSYLEEQAVR[dE]FIAWLVKGGPSSGAPPPSK(Palmitoyl)-NH2) yielded a solubility (Solubility in buffer; [1]) of 1700 µg/mL (≈ 467 µM) and an IC50 (GLP-1R; [3]) of 27 nM.
